Data on eleven compounds can be found in ChEMBL document CHEMBL1201862, “PubChem BioAssay data set” (2004).

The target in assay [1] is Glucose-6-phosphate 1-dehydrogenase (Homo sapiens, UniProt P11413). Put plainly: human G6PD enzyme inhibitors, dose response, selectivity assay for P. falciparum G6PD inhibitor project, biochemical, fluorescence (AID 504792). The format is functional.
Assay [2] deals with T1, Sentrin-specific protease 8 (Homo sapiens, UniProt Q96LD8).
T1 sequence (Q96LD8 whole entry): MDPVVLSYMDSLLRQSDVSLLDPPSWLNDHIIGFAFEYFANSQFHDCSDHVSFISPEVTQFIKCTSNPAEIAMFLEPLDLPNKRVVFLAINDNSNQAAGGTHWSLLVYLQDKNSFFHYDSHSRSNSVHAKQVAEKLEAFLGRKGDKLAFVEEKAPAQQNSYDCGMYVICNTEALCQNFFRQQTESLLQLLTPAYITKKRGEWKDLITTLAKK
The format is functional.

Assay [3] has as its target T1, Sentrin-specific protease 8. The format is functional. The source holds these as a separate data set.
The target of assay [4] is Adenosylmethionine-8-amino-7-oxononanoate aminotransferase (Mycobacterium tuberculosis, UniProt P9WQ81). Briefly: Mycobacterium tuberculosis BioA enzyme inhibitor Measured in Biochemical System Using Plate Reader - 2163-02_Inhibitor_Dose_CherryPick_Activity. The format is functional, Mycobacterium tuberculosis UT205.
Sequence of Adenosylmethionine-8-amino-7-oxononanoate aminotransferase (P9WQ81 whole entry): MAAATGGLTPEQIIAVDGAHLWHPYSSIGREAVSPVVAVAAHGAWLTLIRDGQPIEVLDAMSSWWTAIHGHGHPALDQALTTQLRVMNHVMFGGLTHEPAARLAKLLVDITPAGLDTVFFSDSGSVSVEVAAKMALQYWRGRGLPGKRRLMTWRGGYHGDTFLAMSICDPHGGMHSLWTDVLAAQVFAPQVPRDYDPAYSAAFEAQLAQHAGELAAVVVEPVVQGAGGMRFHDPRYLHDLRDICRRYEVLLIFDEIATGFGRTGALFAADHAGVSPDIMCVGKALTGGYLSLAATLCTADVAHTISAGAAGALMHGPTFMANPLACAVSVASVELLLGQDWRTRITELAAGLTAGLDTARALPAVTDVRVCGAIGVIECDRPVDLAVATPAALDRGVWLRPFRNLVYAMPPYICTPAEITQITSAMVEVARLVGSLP
In assay [5] the target is T2, Beta-lactamase (Pseudomonas aeruginosa, UniProt Q79MP6). Put plainly: IMP-1 metallo-beta-lactamase inhibitors, dose response, selectivity assay for VIM-2 inhibitor project, biochemical, epi-absorbance (AID 1920).
T2 sequence (Q79MP6 whole entry): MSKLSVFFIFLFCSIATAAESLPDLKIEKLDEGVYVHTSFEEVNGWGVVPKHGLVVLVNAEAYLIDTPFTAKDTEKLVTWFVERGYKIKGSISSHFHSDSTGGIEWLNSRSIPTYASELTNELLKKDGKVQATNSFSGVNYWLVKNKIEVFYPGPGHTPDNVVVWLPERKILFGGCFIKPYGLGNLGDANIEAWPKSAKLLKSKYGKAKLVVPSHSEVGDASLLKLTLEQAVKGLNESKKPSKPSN
In assay [6] the target is Beta-lactamase (Salmonella choleraesuis (strain SC-B67), UniProt Q5J463). Put plainly: Epi-absorbance-based counterscreen for selective VIM-2 inhibitors: dose response biochemical high throughput screening assay to identify inhibitors of TEM-1 serine-beta-lactamase. (In general: Counterscreens check selectivity or assay interference.)
Sequence of Beta-lactamase (Salmonella choleraesuis (strain SC-B67), UniProt Q5J463) (Q5J463 whole entry): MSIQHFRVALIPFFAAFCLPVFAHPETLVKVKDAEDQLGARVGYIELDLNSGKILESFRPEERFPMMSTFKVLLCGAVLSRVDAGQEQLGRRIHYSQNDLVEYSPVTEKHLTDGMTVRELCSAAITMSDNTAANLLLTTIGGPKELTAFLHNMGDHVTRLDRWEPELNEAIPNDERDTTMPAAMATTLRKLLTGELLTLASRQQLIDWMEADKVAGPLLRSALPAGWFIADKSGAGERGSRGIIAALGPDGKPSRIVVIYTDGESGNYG
For assay [7], the target named is T2, Beta-lactamase. Put plainly: […] counterscreen for selective VIM-2 inhibitors: dose response biochemical high throughput screening assay to identify inhibitors of IMP-1 metallo-beta-lactamase.
The nature of assay [8]: inhibitors of SNCA 5'UTR-driven reporter translation, confirmation, H4 neuroglioma cells, luminescence (AID 1988). The format is functional, cell-based.
Assay [9] is described as follows: inhibitors of firefly luciferase expression or activity, dose response, H4 neuroglioma cells, luminescence (AID 1990). The format is functional, cell-based.
For assay [10], the system named is BJ. Briefly: cytotoxicity toward Ras-transformed BJeLR fibroblasts, dose response, cell-based, alamar blue fluorescence, cherrypicked samples (AID 2631).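 Also: confirmatory dose-response assay in RAS-dependent BJ fibroblasts engineered with TERT, LT and ST, with cytotoxicity read by fluorescence.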 The format is functional. Particulars: Homo sapiens.
Assay [11] has as its system BJ. Briefly: cytotoxicity toward BJ-TERT-LT-ST fibroblasts, dose response, cell-based, RAS-independent, luminescence (AID 1935).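 Also: BJ fibroblasts immortalized with TERT plus LT and ST oncogenes.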 The format is functional. Particulars: Homo sapiens.
Assay [12] in a line: cytotoxicity toward DRD oncogenic fibroblasts, dose response, cell-based, non-viral oncogenic, luminescence (AID 1934). The format is functional. As to conditions: Homo sapiens.
Assay [13] can be described thus: Luminescence Cell-Based Dose Response HTS to Identify Inhibitors of 5'UTR Stem-Loop Driven Prion Protein mRNA Translation in H4 Neuroglioblastoma Cells. [Related pubchem assays: 1827 (Project Summary), 1813 (Primary HTS)]. The format is functional.
Assay [14] has as its system BJ. Put plainly: cells. The format is functional, cell-based. As to conditions: Homo sapiens.
Assay [15] deals with BJ. Put plainly: cytotoxicity toward BJ-TERT fibroblasts, dose response, cell-based, RAS-independent, luminescence (AID 1933). The format is functional. Particulars: Homo sapiens.
A short description of assay [16]: cells. The format is functional, cell-based.
Assay [17] can be described thus: cells. The format is functional, cell-based. The source holds these as a separate data set.
The target of the next assay is T3, Protein skinhead-1 (Caenorhabditis elegans, UniProt P34707).
T3 sequence (P34707 whole entry): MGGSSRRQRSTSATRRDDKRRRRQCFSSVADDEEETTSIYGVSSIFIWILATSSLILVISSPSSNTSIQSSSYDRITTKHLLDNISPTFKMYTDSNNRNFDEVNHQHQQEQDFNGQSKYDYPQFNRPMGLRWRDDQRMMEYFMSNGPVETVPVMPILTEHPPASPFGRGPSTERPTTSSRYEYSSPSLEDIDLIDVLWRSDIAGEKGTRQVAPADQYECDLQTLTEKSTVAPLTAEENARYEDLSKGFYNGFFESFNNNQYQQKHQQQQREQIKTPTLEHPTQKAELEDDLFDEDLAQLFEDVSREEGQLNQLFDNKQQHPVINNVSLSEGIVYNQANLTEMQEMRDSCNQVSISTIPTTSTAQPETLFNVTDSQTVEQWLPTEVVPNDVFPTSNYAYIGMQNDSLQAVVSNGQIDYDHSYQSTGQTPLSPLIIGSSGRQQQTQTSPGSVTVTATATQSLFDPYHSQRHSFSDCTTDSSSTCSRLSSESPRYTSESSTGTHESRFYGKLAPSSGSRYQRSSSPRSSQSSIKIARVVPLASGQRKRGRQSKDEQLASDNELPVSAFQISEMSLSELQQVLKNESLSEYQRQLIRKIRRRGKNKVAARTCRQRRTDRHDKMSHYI
The format is functional.

The target of assay [18] is Peroxisome proliferator-activated receptor gamma/Nuclear receptor coactivator 1 (Homo sapiens, UniProt P37231). Put plainly: TR-FRET dose response biochemical High Throughput Screening assay for agonists of the steroid receptor coactivator 1 (SRC-1) recruitment by the peroxisome proliferator-activated receptor gamma (PPAR gamma): non-selective agonists. [Related pubchem assays (depositor defined):AID1300, AID1808, AID504735, AID631]. The format is protein assay. A general note: Time-resolved FRET reads energy transfer from a long-lived donor to a nearby acceptor.
Sequence of Peroxisome proliferator-activated receptor gamma/Nuclear receptor coactivator 1 (P37231 whole entry): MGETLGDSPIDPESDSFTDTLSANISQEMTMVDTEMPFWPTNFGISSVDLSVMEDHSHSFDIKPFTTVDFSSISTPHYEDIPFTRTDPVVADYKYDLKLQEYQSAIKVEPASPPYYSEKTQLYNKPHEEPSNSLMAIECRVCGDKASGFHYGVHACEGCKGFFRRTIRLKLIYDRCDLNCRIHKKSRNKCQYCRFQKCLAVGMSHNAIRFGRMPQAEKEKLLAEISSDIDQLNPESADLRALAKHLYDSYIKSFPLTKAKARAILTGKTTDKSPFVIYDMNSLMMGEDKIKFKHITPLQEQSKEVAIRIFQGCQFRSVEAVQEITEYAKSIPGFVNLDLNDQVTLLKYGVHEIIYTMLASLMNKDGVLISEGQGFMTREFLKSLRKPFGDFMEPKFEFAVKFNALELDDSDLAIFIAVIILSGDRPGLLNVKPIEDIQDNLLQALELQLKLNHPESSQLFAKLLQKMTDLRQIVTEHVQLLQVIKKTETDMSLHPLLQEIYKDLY
Sequence of Peroxisome proliferator-activated receptor gamma/Nuclear receptor coactivator 1 (Q15788 whole entry, further chain): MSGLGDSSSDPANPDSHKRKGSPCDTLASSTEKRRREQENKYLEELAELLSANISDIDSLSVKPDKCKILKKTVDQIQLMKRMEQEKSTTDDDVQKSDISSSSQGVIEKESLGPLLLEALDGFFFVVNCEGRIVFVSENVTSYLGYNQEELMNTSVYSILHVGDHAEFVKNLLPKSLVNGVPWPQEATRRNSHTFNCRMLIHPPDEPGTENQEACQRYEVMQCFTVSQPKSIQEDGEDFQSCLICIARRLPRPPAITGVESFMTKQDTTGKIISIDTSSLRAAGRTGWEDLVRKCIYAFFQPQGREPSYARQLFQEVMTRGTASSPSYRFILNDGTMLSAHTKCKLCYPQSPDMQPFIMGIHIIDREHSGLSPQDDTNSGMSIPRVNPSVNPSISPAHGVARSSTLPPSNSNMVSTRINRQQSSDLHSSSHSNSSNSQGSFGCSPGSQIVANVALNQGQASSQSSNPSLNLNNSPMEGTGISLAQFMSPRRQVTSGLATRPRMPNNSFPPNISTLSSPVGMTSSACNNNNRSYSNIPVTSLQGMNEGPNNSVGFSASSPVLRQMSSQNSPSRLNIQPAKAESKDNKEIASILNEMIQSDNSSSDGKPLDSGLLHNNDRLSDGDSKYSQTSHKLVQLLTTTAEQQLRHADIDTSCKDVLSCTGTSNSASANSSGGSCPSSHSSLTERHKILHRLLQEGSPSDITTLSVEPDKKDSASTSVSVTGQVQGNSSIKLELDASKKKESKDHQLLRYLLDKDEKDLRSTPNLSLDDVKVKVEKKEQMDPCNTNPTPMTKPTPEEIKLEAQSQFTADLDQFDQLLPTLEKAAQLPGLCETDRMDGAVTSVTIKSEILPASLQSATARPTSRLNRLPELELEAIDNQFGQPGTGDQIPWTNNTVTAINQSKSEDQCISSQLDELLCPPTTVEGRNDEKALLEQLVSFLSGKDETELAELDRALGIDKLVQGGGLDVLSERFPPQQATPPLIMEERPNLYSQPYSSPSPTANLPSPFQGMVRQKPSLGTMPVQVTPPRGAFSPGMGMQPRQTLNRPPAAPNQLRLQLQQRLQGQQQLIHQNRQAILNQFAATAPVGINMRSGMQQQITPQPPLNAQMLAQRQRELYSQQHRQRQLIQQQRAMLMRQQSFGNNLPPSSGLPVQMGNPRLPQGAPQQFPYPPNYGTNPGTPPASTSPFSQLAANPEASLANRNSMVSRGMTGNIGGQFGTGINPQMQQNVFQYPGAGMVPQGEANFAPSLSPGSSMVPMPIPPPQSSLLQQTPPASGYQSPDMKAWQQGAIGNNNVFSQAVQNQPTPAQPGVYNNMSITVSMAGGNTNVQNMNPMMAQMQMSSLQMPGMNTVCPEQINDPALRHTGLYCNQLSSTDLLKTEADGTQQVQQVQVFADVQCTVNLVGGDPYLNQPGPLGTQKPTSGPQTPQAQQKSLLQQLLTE

Assay [19] addresses FAD-linked sulfhydryl oxidase ALR (Homo sapiens, UniProt P55789). Put plainly: inhibitors of human ALR sulfhydryl oxidase, dose response, biochemical, H2O2 detection, luminescence, cherry-pick (AID 493248).
The target in assay [20] is Peroxisome proliferator-activated receptor gamma/Nuclear receptor coactivator 3 (Homo sapiens, UniProt P37231). Briefly: TR-FRET dose response biochemical High Throughput Screening assay for agonists of the steroid receptor coactivator 3 (SRC-3) recruitment by the peroxisome proliferator-activated receptor gamma (PPAR gamma): non-selective agonists. [Related pubchem assays: 1301 (Confirmation screen.), 1048 (Primary screen.)]. The format is functional.

Assay [21] addresses Peroxisome proliferator-activated receptor gamma/Nuclear receptor coactivator 2 (Homo sapiens, UniProt P37231). Briefly: TR-FRET dose response biochemical High Throughput Screening assay for agonists of the steroid receptor coactivator 2 (SRC-2) recruitment by the peroxisome proliferator-activated receptor gamma (PPAR gamma): non-selective agonists. [Related pubchem assays: 1297, 1032 ]. The format is functional.

Assay [22] concerns HEK293. Briefly: cells. The format is functional, cell-based. Particulars: Homo sapiens.
A short description of assay [23]: inhibitors of intracellular T. cruzi replication, confirmation, NIH3T3 host cells, beta-gal luminescence (AID 2044).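 Also: intracellular parasites grown in NIH/3T3 mouse fibroblasts as host cells; luminescent beta-galactosidase reporter signal from transgenic T. cruzi replicating inside host cells; inhibitors lower the luminescence signal.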 The format is functional, cell-based.
Assay [24] in a line: cytotoxicity toward NIH3T3 fibroblasts, dose response, counter-screen, cell-based, ATP luminescence, mouse fibroblasts (AID 2010).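 Also: cells exposed to compound for about 90 hours before reading.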 The format is functional.
The test system of assay [25] is HEK293. Put plainly: cells. The format is functional, cell-based. Particulars: Homo sapiens. This is another data set of the same source.
The target in another assay is Protein Wnt-3a (Mus musculus, UniProt P27467). Put plainly: Wnt3a-driven reporter signaling inhibition, dose response, selectivity assay for Gli-SUFU antagonist project, Wnt-LIGHT cells, luminescence (AID 651570).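 Also: Wnt-LIGHT reporter cells stimulated with conditioned medium from Wnt3a-producing cells.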 The format is functional. Particulars: read-out: IC50_Mean.
In assay [26] the test system is HEK293. Put plainly: NOD2 signaling inhibitors in MDP-stimulated cells, cell-based, uHTS, luminescence (AID 2001). The format is functional. Particulars: Homo sapiens.
Assay [27] has as its system HEK293. Put plainly: inhibitors of LMP1-driven NF-kB reporter, dose response, cell-based, HEK293, luciferase, cherry-pick (AID 588343). The format is functional. Particulars: Homo sapiens.
Assay [28] has as its system HEK293. Put plainly: cells. The format is functional, cell-based. Particulars: Homo sapiens. This is another data set of the same source.
Assay [29] addresses Nucleotide-binding oligomerization domain-containing protein 2 (Homo sapiens, UniProt Q9HC29). Briefly: NOD2 signaling inhibitors, cell-based, luminescence, uHTS, HEK293 (AID 1566). The format is functional.
Assay [30] has as its system HEK293. Briefly: NOD1 signaling inhibitors, primary screen, cell-based, luminescence, uHTS (AID 1578). The format is functional. Particulars: Homo sapiens.
Assay [31] in a line: THP-1 cell cytotoxicity, cytotoxicity control, set 4 (AID 504911). The format is functional. As to conditions: Mycobacterium tuberculosis.
Assay [32] addresses Cyclin-dependent kinase 9 (Homo sapiens, UniProt P50750). The format is functional.
Assay [33] concerns the target Cyclin-dependent kinase 7 (Homo sapiens, UniProt P50613). The format is functional.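 Also: value comes from a kinome-wide kinase profiling panel in which CDK7 is one member.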
For assay [34], the target named is Cell division cycle 7-related protein kinase (Homo sapiens, UniProt O00311). The format is functional.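 Also: value obtained from a kinome-wide kinase panel.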

Activity calls are given as the source filed them.

Sequence of Peroxisome proliferator-activated receptor gamma/Nuclear receptor coactivator 2 (P37231 whole entry): as the sequence (P37231 whole entry) above
Sequence of Peroxisome proliferator-activated receptor gamma/Nuclear receptor coactivator 2 (Q15596 whole entry, further chain): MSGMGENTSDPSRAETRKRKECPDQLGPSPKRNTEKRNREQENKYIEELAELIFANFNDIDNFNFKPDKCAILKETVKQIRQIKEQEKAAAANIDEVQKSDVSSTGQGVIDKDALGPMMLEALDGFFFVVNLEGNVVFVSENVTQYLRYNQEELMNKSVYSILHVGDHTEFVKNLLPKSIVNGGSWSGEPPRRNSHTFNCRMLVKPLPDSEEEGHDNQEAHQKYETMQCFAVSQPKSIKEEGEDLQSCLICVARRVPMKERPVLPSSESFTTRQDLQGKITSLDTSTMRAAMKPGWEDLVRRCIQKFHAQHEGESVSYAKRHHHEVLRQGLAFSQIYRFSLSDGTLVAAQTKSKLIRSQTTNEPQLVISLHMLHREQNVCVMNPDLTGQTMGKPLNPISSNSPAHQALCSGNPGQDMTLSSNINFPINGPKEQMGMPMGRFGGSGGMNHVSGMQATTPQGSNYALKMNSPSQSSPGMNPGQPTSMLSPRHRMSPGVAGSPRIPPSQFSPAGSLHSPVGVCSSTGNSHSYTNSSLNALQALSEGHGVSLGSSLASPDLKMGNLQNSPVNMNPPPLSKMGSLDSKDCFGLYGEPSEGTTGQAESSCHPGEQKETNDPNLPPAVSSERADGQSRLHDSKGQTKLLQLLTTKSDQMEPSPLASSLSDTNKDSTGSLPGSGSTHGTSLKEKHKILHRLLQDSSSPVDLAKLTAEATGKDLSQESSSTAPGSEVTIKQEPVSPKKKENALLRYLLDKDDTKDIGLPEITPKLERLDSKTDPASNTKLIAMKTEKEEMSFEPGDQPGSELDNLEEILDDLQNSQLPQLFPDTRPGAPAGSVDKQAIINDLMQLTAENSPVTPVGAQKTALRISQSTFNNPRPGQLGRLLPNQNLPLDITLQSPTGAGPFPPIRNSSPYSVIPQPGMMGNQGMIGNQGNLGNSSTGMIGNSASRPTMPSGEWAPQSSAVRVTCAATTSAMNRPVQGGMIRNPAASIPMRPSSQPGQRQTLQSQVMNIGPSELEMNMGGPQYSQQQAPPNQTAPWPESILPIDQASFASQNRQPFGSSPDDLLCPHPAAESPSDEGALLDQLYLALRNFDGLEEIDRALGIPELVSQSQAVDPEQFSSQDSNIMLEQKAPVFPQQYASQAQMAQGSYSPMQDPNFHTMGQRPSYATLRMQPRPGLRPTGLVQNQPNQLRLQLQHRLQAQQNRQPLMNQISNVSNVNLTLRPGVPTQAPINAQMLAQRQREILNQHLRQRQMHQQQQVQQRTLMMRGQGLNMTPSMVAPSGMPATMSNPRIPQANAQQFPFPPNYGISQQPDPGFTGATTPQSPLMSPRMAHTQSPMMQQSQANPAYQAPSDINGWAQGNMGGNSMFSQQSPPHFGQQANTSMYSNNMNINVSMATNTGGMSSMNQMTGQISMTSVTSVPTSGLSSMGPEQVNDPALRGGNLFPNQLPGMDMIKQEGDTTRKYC

In the case of `Cc1ccc(Nc2cc(C)c(O)c(C)c2)cc1`, the IC50 in [1] was 40 µM (inactive); in assay [2] it was 23.7 µM (active); in [3] it was 13.9 µM (active).
What is called AC50 is the concentration giving half of the maximal activity seen. Take `Cc1nn(CCC(=O)O)c2nc(-c3cccnc3)cc(C(F)(F)F)c12`: the half-maximal activity concentration (AC50) in assay [4] is 10.2 µM (active).
`Cc1ccc(-n2c(-c3nn(C)c(C)c3Cl)n[nH]c2=S)cc1`: the IC50 on Beta-lactamase [5], at Beta-lactamase [6] and at Beta-lactamase [7] was > 59.6 µM (inactive) in each case.
One may read the EC50 as the concentration at which the effect is half-maximal. As to `Cc1cc2nc(/C=C/c3cccnc3)[nH]c2cc1C`, the half-maximal effective concentration (EC50) in assay [8] is 0.154 µM (active); in [9] it was 0.336 µM (inconclusive); with BJ [10] it was < 0.104 µM (active); in the assay on BJ [11], 15.1 µM (inconclusive); in assay [12], 1.42 µM (inconclusive); in assay [13], 0.318 µM (active). In addition, the values for the EC50 in the assay on BJ [14] and in the assay on BJ [15] were 1.89 µM (inconclusive) and 0.553 µM (inconclusive), respectively.
Take `N#CC1=C(N)Oc2cc(N)ccc2C1c1cccc(Br)c1` (stereo not drawn): the EC50 in assay [8] was 0.18 µM (active); in assay [9], 1.83 µM (active); in the assay on BJ [10] it was 0.182 µM (active); with BJ [11], 0.859 µM (inconclusive); in assay [12], 0.658 µM (active); in [13] it was 0.502 µM (active). Moreover, the EC50 in the assay on BJ [14] was 0.702 µM (active); in the assay on BJ [15], 1.2 µM (active).
As to `O=C(NCCS(=O)(=O)NCCc1ccccc1)c1ccc2c(c1)OCO2`, the IC50 in “cells [16]” is > 29.9 µM (inactive). The EC50 in the assay “cells [17]” was > 29.9 µM (inactive).
For the compound `Cc1c(Cl)c(-c2nnc(S)n2-c2ccc(F)cc2)nn1C`, the IC50 at Protein skinhead-1 was > 100 µM (inactive); on Beta-lactamase [5] it was > 59.6 µM (inactive); on Beta-lactamase [6], > 59.6 µM (inactive); on Beta-lactamase [7], > 59.6 µM (inactive). Also, the EC50 in assay [18] is > 79.4 µM (inactive); in assay [20], > 79.4 µM (not active); in assay [21] it was > 79.4 µM (not active). Moreover, the concentration at half-maximal activity (AC50) in assay [19] is 5.12 µM (active).
As to `C=CCn1c(O)c(N=NC(=S)Nc2cccc(C)c2)c2ccccc21`, the IC50 is 2.97 µM (active) with HEK293 [22]; > 20 µM (inactive) with HEK293 [25]; 29.2 µM (inactive) on Protein Wnt-3a; 1.18 µM (active) in the assay with HEK293 [26]; > 20 µM (inactive) in the assay with HEK293 [28]. Further, the 50% effective concentration (EC50) in assay [23] was 0.558 µM (active); in [24] it was 3.44 µM (active); in [29], 16.3 µM (active); in the assay with HEK293 [30], 1.09 µM (active). Also, the AC50 in the assay on HEK293 [27] is 1.46 µM (active).
Usually CC50 stands for the concentration that lowers cell viability or growth by half. For `O=C(CSc1ncccn1)NC1CCCCC1`, the CC50 in [31] is > 100 µM (active).
On to `O=C(Nc1cccnc1)c1ccc(N2CCOCC2)c([N+](=O)[O-])c1`, for which the AC50 in assay [4] was 6.8 µM (active).
By Ki is commonly meant the dissociation constant of the complex between target and ligand, obtained from inhibition or displacement. As to `NC(=O)c1ccc(-c2ccncc2)cc1N1CCCC1`, the inhibitory constant (Ki) in assay [32] is 1 µM (active); in assay [33] it was > 2.51 µM (inactive); in [34], 0.126 µM (active).
